Data set [1] can be described thus: Mass balance/recovery, metabolite profile, pharmacokinetics and safety of radiolabeled CYT-0387. The class given is in vivo, human. To be noted: for share of circulating radioactivity: plasma. As for the experimental part:
CYT-0387 is a selective small molecule inhibitor of Janus kinase 1 and 2 (JAK1/JAK2) currently under investigation to treat myelofibrosis. This study evaluated the mass balance/recovery, metabolite profile, pharmacokinetics, and safety of radiolabeled CYT-0387 in humans.
Six healthy individuals (subjects) received a single oral dose of 200 mg CYT-0387 containing ˜100 μCi of [^14C]-CYT-0387. Blood samples were collected up to 21 days or until plasma radioactivity in 2 consecutive samples was below detection limit or urine and feces sampling was discontinued. Urine/feces samples were collected up to 21 days or until ≧90% administered dose was recovered in feces and urine and radioactivity in 2 consecutive sampling intervals were ≦1% administered dose. Plasma concentrations of CYT-0387 and metabolites were measured using LC-MS/MS and total radioactivity assessed by liquid scintillation counting. Metabolite profiling was performed in select urine, feces, and plasma samples. Safety assessments were performed throughout the study.

Data set [2] is described as follows: Solid form hygroscopicity and stability. To be noted: exposed to moisture. The format is physicochemical. As for the experimental part:
Dynamic Vapor Sorption: The hygroscopicity of N-(cyanomethyl)-4-(2-(4-morpholinophenylamino)pyrimidin-4-yl)benzamide dihydrochloride monohydrate Form II was evaluated at room temperature using a dynamic vapor sorption (DVS) instrument (TGA Q5000 TA Instruments, New Castle, Del.). Water adsorption and desorption were studied as a function of relative humidity (RH) over the range of 0 to 90% at room temperature. The humidity in the chamber was increased from the initial level 50% RH) to 60% RH and held until the solid and atmosphere reached equilibration. The equilibrium test was continued until passed or expired after 10 hours. At this point, RH was raised 10% higher and the process was repeated until 90% RH was reached and equilibrated. During this period, the water sorption was monitored. For desorption, the relative humidity was decreased in a similar manner to measure a full sorption/desorption cycle. All experiments were operated in dm/dt mode (mass variation over time) to determine the equilibration endpoint. Approximately 4 mg of solid CYT-0387 was used. Data analysis was conducted using Universal Analysis 2000 Version 4.7A (TA Instruments, New Castle, Del., USA).

Where a name gives a salt, the structure may show the parent alone.

`NC(=O)CNC(=O)c1ccc(-c2ccnc(Nc3ccc(N4CCOCC4=O)cc3)n2)cc1` [Compound M8, N-(2-amino-2-oxoethyl)-4-(2-((4-(3-oxomorpholino)phenyl)amino)pyrimidin-4-yl)benzamide]: the “share of circulating radioactivity” value in data set [1] is given as 5.8%.

Regarding `O=C(O)c1ccc(-c2ccnc(Nc3ccc(N4CCOCC4=O)cc3)n2)cc1` [Compound M14, 4-(2-((4-(3-oxomorpholino)phenyl)amino)pyrimidin-4-yl)benzoic acid], in data set [1], the excreted in feces is 21.4 % of the dose.

With `CC(=O)Nc1ccc(Nc2nccc(-c3ccc(C(=O)NCC#N)cc3)n2)cc1` [Compound M20, 4-(2-((4-acetamidophenyl)amino)pyrimidin-4-yl)-N-(cyanomethyl)benzamide], the “share of circulating radioactivity” value in data set [1] is reported as 2.3%.

Regarding `N#CCNC(=O)c1ccc(-c2ccnc(Nc3ccc(N4CCOCC4=O)cc3)n2)cc1` [Compound M21, N-(cyanomethyl)-4-(2-{[4-(3-oxomorpholin-4-yl)phenyl]amino}pyrimidin-4-yl)benzamide], in data set [1], the excreted in feces is listed as 12.7 % of the dose and the “share of circulating radioactivity” value is 64.2%. Moreover, the excreted in urine in data set [1] (urine) is 11.5 % of the dose.

Take `N#CCNC(=O)c1ccc(-c2ccnc(Nc3ccc(N4CCOCC4)cc3)n2)cc1` [N-(cyanomethyl)-4-(2-(4-morpholinophenylamino)pyrimidin-4-yl)benzamide (CYT-0387) dihydrochloride anhydrous Form I]: in data set [2], the “hygroscopicity and physical stability” value was “hygroscopic and physically unstable”.
